{
  "source": "patent US9545461B2",
  "about": "“Anti-microbial peptides and methods of use thereof” (priority 2011, dated 2017)",
  "key": {"[1]": {"system": "Streptococcus pyogenes (ATCC 19615)", "assay_type": "cell-based", "conditions": "200 μg/mL, 3 h"}, "[2]": {"system": "Escherichia coli (ATCC 25922)", "experiment": "Antimicrobial spectrum analysis", "assay_type": "cell-based", "conditions": "200 μg/mL, 3 h"}, "[3]": {"system": "Serratia marcescens (ATCC 43862)", "experiment": "Antimicrobial spectrum analysis", "assay_type": "cell-based", "conditions": "200 μg/mL, 3 h"}, "[4]": {"system": "Staphylococcus aureus (ATCC 29213)", "experiment": "Antimicrobial spectrum analysis", "assay_type": "cell-based", "conditions": "200 μg/mL, 3 h"}, "[5]": {"system": "Enterococcus faecalis (ATCC 51188)", "experiment": "Antimicrobial spectrum analysis", "assay_type": "cell-based", "conditions": "200 μg/mL, 3 h"}, "[6]": {"system": "Candida albicans (ATCC 90028)", "experiment": "Antimicrobial spectrum analysis", "assay_type": "cell-based", "conditions": "200 μg/mL, 3 h"}, "[7]": {"system": "Staphylococcus epidermidis (ATCC 12228)", "experiment": "Antimicrobial spectrum analysis", "assay_type": "cell-based", "conditions": "200 μg/mL, 3 h"}, "[8]": {"experiment": "Bactericidal effect of phosphorylated vs non-phosphorylated 19-mer (FIG. 6)", "assay_type": "cell-based", "text": "Synthetic 19-mer KDAMP peptides were synthesized with or without tyrosine phosphorylation. The bactericidal effect of the peptides was compared."}, "[9]": {"system": "human corneal epithelial cells (TiHCE)", "experiment": "Effect of peptide treatment alone on epithelial cells", "assay_type": "cell-based"}, "[10]": {"system": "P. aeruginosa strain 6206", "assay_type": "cell-based", "conditions": "Pseudomonas aeruginosa, 3 h, 200 μg/ml"}, "[11]": {"system": "P. aeruginosa clinical isolate 6206 cytotoxicity to TiHCE cells", "experiment": "Cytotoxicity assay (trypan blue staining) in TiHCE cells", "assay_type": "cell-based, Pseudomonas aeruginosa", "conditions": "3 h", "procedure": "To assess protective activity of against bacterial invasion, high-calcium treated TiHCE cells were incubated with P. aeruginosa clinical isolate 6294 (40 μl/well; 10^6 cfu/ml in crude lysates/lysate fractions versus KBM control for 3 h or 10^8 cfu/ml in peptide-containing saline versus no-peptide saline control for 2 h), followed by gentamicin treatment (200 μg/ml for 1 h). Viable intracellular bacteria was collected with 0.25% Triton-X in PBS (100 μl/well) and quantified by plating on TSA. To assay protection against bacterial cytotoxicity, P. aeruginosa clinical isolate 6206 was used instead (40 μl/well; 10^6 cfu/ml for 3 h). Dead cells were quantified by Trypan-blue (0.04%) staining."}, "[12]": {"system": "cystic fibrosis isolate 2192", "conditions": "Pseudomonas aeruginosa, 3 h, 200 μg/ml"}, "laboratory strain PAO1": {"system": "laboratory strain PAO1", "experiment": "Antimicrobial activity assay (viable counts at 3 h)", "assay_type": "cell-based, Pseudomonas aeruginosa", "conditions": "after 3 h, 200 μg/ml in 0.9% NaCl"}, "[13]": {"system": "P. aeruginosa clinical isolate 6294", "assay_type": "cell-based", "conditions": "Pseudomonas aeruginosa, 3 h, 200 μg/ml"}, "laboratory strain PA14": {"system": "laboratory strain PA14", "experiment": "Antimicrobial activity assay (viable counts at 3 h)", "assay_type": "cell-based, Pseudomonas aeruginosa", "conditions": "200 μg/ml (FIG. 2D)"}},
  "note": "Square brackets hold non-standard residues; d marks the D form. Ends that are not written are not given here. pY = N[C@@H](Cc1ccc(OP(=O)(O)O)cc1)C(=O)O",
  "data": [
    {"substance": "AIGGGLSSVGGGSSTIK [17mer, AIGGGLSSVGGGSSTIK]", "values": [
      {"measurement": "susceptibility (in words)", "setting": "[1]", "result": "not susceptible"},
      {"measurement": "activity (in words)", "setting": "[2]", "result": "neither the 19- nor the 17mer peptide was active"},
      {"measurement": "activity (in words)", "setting": "[3]", "result": "neither the 19- nor the 17mer peptide was active"},
      {"measurement": "activity (in words)", "setting": "[4]", "result": "neither the 19- nor the 17mer peptide was active"},
      {"measurement": "activity (in words)", "setting": "[5]", "result": "neither the 19- nor the 17mer peptide was active"},
      {"measurement": "activity (in words)", "setting": "[6]", "result": "neither the 19- nor the 17mer peptide was active"},
      {"measurement": "activity (in words)", "setting": "[7]", "result": "neither the 19- nor the 17mer peptide was active"}
    ]},
    {"substance": "RAIGGGLSSVGGGSSTIK(phospho-Y) (RAIGGGLSSVGGGSSTIK[pY]) [phosphorylated 19-mer]", "values": [
      {"measurement": "bactericidal activity compared with the non-phosphorylated 19-mer", "setting": "[8]", "result": "significantly increased bactericidal activity"}
    ]},
    {"substance": "RAIGGGLSSVGGGSSTIKY [19mer, RAIGGGLSSVGGGSSTIKY]", "values": [
      {"measurement": "impact of peptide treatment alone on epithelial cells (morphology, trypan blue exclusion)", "setting": "[9]", "result": "not visibly impacted"},
      {"measurement": "reduced viability", "setting": "[10]", "result": 99.7, "unit": "%"},
      {"measurement": "protection against bacterial induced cytotoxicity compared to controls", "setting": "[11]", "result": 85.1, "unit": "%"},
      {"measurement": "reduced viability", "setting": "[12]", "result": 96.9, "unit": "%"},
      {"measurement": "reduced viability", "setting": "laboratory strain PAO1", "result": 96.1, "unit": "%"},
      {"measurement": "reduced viability", "setting": "[13]", "result": 97.5, "unit": "%"},
      {"measurement": "reduced viability", "setting": "laboratory strain PA14", "result": 98.7, "unit": "%"}
    ]}
  ]
}
